Laboratory results from the NIST ThermoML archive (doi:10.1016/j.fluid.2007.04.030).
± gives the expanded uncertainty stated by the source.

Experiment: xn = mol fraction of the nth substance listed
Details: 101 kPa, Liquid

## COc1cc2c(cc1O)CC1c3c(cc(O)c(OC)c3-2)CCN1C (centres undefined) [boldine] + CO
283.15 K, x1 = 0.00099
  mass density: 804.63 ± 0.56 kg/m3
283.15 K, x1 = 0.002
  mass density: 808.15 ± 0.55 kg/m3
283.15 K, x1 = 0.00302
  mass density: 811.7 ± 0.54 kg/m3
283.15 K, x1 = 0.00406
  mass density: 815.24 ± 0.54 kg/m3
283.15 K, x1 = 0.00513
  mass density: 818.83 ± 0.53 kg/m3
283.15 K, x1 = 0.00788
  mass density: 827.92 ± 0.51 kg/m3
283.15 K, x1 = 0.01077
  mass density: 837.15 ± 0.49 kg/m3
283.15 K, x1 = 0.01696
  mass density: 856.15 ± 0.46 kg/m3
283.15 K, x1 = 0.02389
  mass density: 875.72 ± 0.42 kg/m3
288.15 K, x1 = 0.00099
  mass density: 799.96 ± 0.57 kg/m3
288.15 K, x1 = 0.002
  mass density: 803.48 ± 0.56 kg/m3
288.15 K, x1 = 0.00302
  mass density: 807.04 ± 0.55 kg/m3
288.15 K, x1 = 0.00406
  mass density: 810.59 ± 0.55 kg/m3
288.15 K, x1 = 0.00513
  mass density: 814.19 ± 0.54 kg/m3
288.15 K, x1 = 0.00788
  mass density: 823.28 ± 0.52 kg/m3
288.15 K, x1 = 0.01077
  mass density: 832.53 ± 0.5 kg/m3
288.15 K, x1 = 0.01696
  mass density: 851.55 ± 0.47 kg/m3
288.15 K, x1 = 0.02389
  mass density: 871.15 ± 0.43 kg/m3
293.15 K, x1 = 0.00099
  mass density: 795.27 ± 0.58 kg/m3
293.15 K, x1 = 0.002
  mass density: 798.79 ± 0.57 kg/m3
293.15 K, x1 = 0.00302
  mass density: 802.35 ± 0.56 kg/m3
293.15 K, x1 = 0.00406
  mass density: 805.91 ± 0.55 kg/m3
293.15 K, x1 = 0.00513
  mass density: 809.51 ± 0.55 kg/m3
293.15 K, x1 = 0.00788
  mass density: 818.62 ± 0.53 kg/m3
293.15 K, x1 = 0.01077
  mass density: 827.88 ± 0.51 kg/m3
293.15 K, x1 = 0.01696
  mass density: 846.93 ± 0.47 kg/m3
293.15 K, x1 = 0.02389
  mass density: 866.56 ± 0.44 kg/m3
298.15 K, x1 = 0.00099
  mass density: 790.57 ± 0.59 kg/m3
298.15 K, x1 = 0.002
  mass density: 794.1 ± 0.58 kg/m3
298.15 K, x1 = 0.00302
  mass density: 797.66 ± 0.57 kg/m3
298.15 K, x1 = 0.00406
  mass density: 801.22 ± 0.56 kg/m3
298.15 K, x1 = 0.00513
  mass density: 804.83 ± 0.56 kg/m3
298.15 K, x1 = 0.00788
  mass density: 813.95 ± 0.54 kg/m3
298.15 K, x1 = 0.01077
  mass density: 823.21 ± 0.52 kg/m3
298.15 K, x1 = 0.01696
  mass density: 842.29 ± 0.48 kg/m3
298.15 K, x1 = 0.02389
  mass density: 861.96 ± 0.45 kg/m3
303.15 K, x1 = 0.00099
  mass density: 785.86 ± 0.59 kg/m3
303.15 K, x1 = 0.002
  mass density: 789.39 ± 0.59 kg/m3
303.15 K, x1 = 0.00302
  mass density: 792.96 ± 0.58 kg/m3
303.15 K, x1 = 0.00406
  mass density: 796.52 ± 0.57 kg/m3
303.15 K, x1 = 0.00513
  mass density: 800.14 ± 0.57 kg/m3
303.15 K, x1 = 0.00788
  mass density: 809.27 ± 0.55 kg/m3
303.15 K, x1 = 0.01077
  mass density: 818.54 ± 0.53 kg/m3
303.15 K, x1 = 0.01696
  mass density: 837.63 ± 0.49 kg/m3
303.15 K, x1 = 0.02389
  mass density: 857.34 ± 0.46 kg/m3
308.15 K, x1 = 0.00099
  mass density: 781.12 ± 0.6 kg/m3
308.15 K, x1 = 0.002
  mass density: 784.66 ± 0.6 kg/m3
308.15 K, x1 = 0.00302
  mass density: 788.23 ± 0.59 kg/m3
308.15 K, x1 = 0.00406
  mass density: 791.8 ± 0.58 kg/m3
308.15 K, x1 = 0.00513
  mass density: 795.42 ± 0.58 kg/m3
308.15 K, x1 = 0.00788
  mass density: 804.56 ± 0.56 kg/m3
308.15 K, x1 = 0.01077
  mass density: 813.85 ± 0.54 kg/m3
308.15 K, x1 = 0.01696
  mass density: 832.96 ± 0.5 kg/m3
308.15 K, x1 = 0.02389
  mass density: 852.69 ± 0.47 kg/m3
313.15 K, x1 = 0.00099
  mass density: 776.35 ± 0.61 kg/m3
313.15 K, x1 = 0.002
  mass density: 779.89 ± 0.61 kg/m3
313.15 K, x1 = 0.00302
  mass density: 783.47 ± 0.6 kg/m3
313.15 K, x1 = 0.00406
  mass density: 787.05 ± 0.59 kg/m3
313.15 K, x1 = 0.00513
  mass density: 790.67 ± 0.59 kg/m3
313.15 K, x1 = 0.00788
  mass density: 799.82 ± 0.57 kg/m3
313.15 K, x1 = 0.01077
  mass density: 809.13 ± 0.55 kg/m3
313.15 K, x1 = 0.01696
  mass density: 828.27 ± 0.51 kg/m3
313.15 K, x1 = 0.02389
  mass density: 848.03 ± 0.48 kg/m3
318.15 K, x1 = 0.00099
  mass density: 771.55 ± 0.62 kg/m3
318.15 K, x1 = 0.002
  mass density: 775.1 ± 0.62 kg/m3
318.15 K, x1 = 0.00302
  mass density: 778.68 ± 0.61 kg/m3
318.15 K, x1 = 0.00406
  mass density: 782.26 ± 0.6 kg/m3
318.15 K, x1 = 0.00513
  mass density: 785.89 ± 0.6 kg/m3
318.15 K, x1 = 0.00788
  mass density: 795.05 ± 0.58 kg/m3
318.15 K, x1 = 0.01077
  mass density: 804.37 ± 0.56 kg/m3
318.15 K, x1 = 0.01696
  mass density: 823.55 ± 0.52 kg/m3
318.15 K, x1 = 0.02389
  mass density: 843.34 ± 0.48 kg/m3
323.15 K, x1 = 0.00099
  mass density: 766.71 ± 0.63 kg/m3
323.15 K, x1 = 0.002
  mass density: 770.26 ± 0.63 kg/m3
323.15 K, x1 = 0.00302
  mass density: 773.84 ± 0.62 kg/m3
323.15 K, x1 = 0.00406
  mass density: 777.43 ± 0.61 kg/m3
323.15 K, x1 = 0.00513
  mass density: 781.07 ± 0.61 kg/m3
323.15 K, x1 = 0.00788
  mass density: 790.25 ± 0.59 kg/m3
323.15 K, x1 = 0.01077
  mass density: 799.58 ± 0.57 kg/m3
323.15 K, x1 = 0.01696
  mass density: 818.78 ± 0.53 kg/m3
323.15 K, x1 = 0.02389
  mass density: 838.61 ± 0.49 kg/m3
328.15 K, x1 = 0.00099
  mass density: 761.83 ± 0.64 kg/m3
328.15 K, x1 = 0.002
  mass density: 765.38 ± 0.64 kg/m3
328.15 K, x1 = 0.00302
  mass density: 768.97 ± 0.63 kg/m3
328.15 K, x1 = 0.00406
  mass density: 772.57 ± 0.62 kg/m3
328.15 K, x1 = 0.00513
  mass density: 776.2 ± 0.62 kg/m3
328.15 K, x1 = 0.00788
  mass density: 785.4 ± 0.6 kg/m3
328.15 K, x1 = 0.01077
  mass density: 794.75 ± 0.58 kg/m3
328.15 K, x1 = 0.01696
  mass density: 813.97 ± 0.54 kg/m3
328.15 K, x1 = 0.02389
  mass density: 833.84 ± 0.5 kg/m3
333.15 K, x1 = 0.00099
  mass density: 756.89 ± 0.65 kg/m3
333.15 K, x1 = 0.002
  mass density: 760.45 ± 0.65 kg/m3
333.15 K, x1 = 0.00302
  mass density: 764.05 ± 0.64 kg/m3
333.15 K, x1 = 0.00406
  mass density: 767.65 ± 0.63 kg/m3
333.15 K, x1 = 0.00513
  mass density: 771.29 ± 0.63 kg/m3
333.15 K, x1 = 0.00788
  mass density: 780.5 ± 0.61 kg/m3
333.15 K, x1 = 0.01077
  mass density: 789.86 ± 0.59 kg/m3
333.15 K, x1 = 0.01696
  mass density: 809.11 ± 0.55 kg/m3
333.15 K, x1 = 0.02389
  mass density: 829.02 ± 0.51 kg/m3
